Numbered stars: 1 amine (or outer) side, 2 acyl side, 3 side chain; on linkers, the order of the positions; unused ones are H or OH. Bridge positions count the residues as written; N and C are the ends. Square brackets hold non-standard residues; d marks the D form. Peptide text beside a SMILES is read from it. ξ: configuration not given here. ξαMeNle(6-ylidene) = CC(CCCC=[*:3])(N[*:1])C(=O)[*:2]; Nle = CCCC[C@H](N)C(=O)O
How the values were obtained:
[1] = system: leukemia/lymphoma human cell lines; assay: MTT cell viability assay, leukemia/lymphoma lines; assay type: cell-based; details: 20 μM, MTT 48 hrs, FIG. 1
Experimental: (§1) Cell viability assays shown in FIGS. 1-32 were performed according to the following protocol. Tumor cell lines were grown in specific serum-supplemented media (growth media) as necessary. A day prior to the initiation of the study, cells were plated at optimal cell density (15,000 to 25,000 cells/well) in 200 μl growth media in microtiter plates. The next day, cells were washed twice in serum-free/phenol red-free RPMI complete media (assay buffer) and a final volume of 100 μl assay buffer was added to each well. Human peripheral blood lymphocytes (hPBLs) were isolated from Buffy coats (San Diego Blood Bank) using Ficoll-Paque gradient separation and plated on the day of the experiment at 25,000 cells/well.
(§2) Peptidomimetic macrocycles were diluted from 1 mM stocks (100% DMSO) in sterile water to prepare 400 μM working solutions. The peptidomimetic macrocycles and controls were then diluted 10 or […] or alternatively serially two-fold diluted in assay buffer in dosing plates to provide concentrations of either 40 and 20 μM or between 1.2 and 40 μM, respectively. […]
(§3) Towards the end of the 4 hour incubation time, 22 μl FBS was added to each well for a total concentration of 10% FBS. […] At the end of the incubation period, MTT assay was performed according to manufacturer's instructions (Sigma, catalog #M2128) and absorbance was measured at 560 nm using Dynex Opsys MR Plate reader. […]

NCI-H220 = assay: MTT cell viability assay, NCI-H220; assay type: cell-based, human; details: 20 μM, MTT 48 hrs, FIG. 1
Experimental: as §1, §2, §3

NCI-H146 = assay: MTT cell viability assay, NCI-H146; assay type: cell-based, human; details: 20 μM, MTT 48 hrs, FIG. 1
Experimental: as §1, §2, §3

A-549 = assay: MTT cell viability assay, A-549; assay type: cell-based, human; details: 20 μM, MTT 48 hrs, FIG. 1
Experimental: as §1, §2, §3

H-460 = assay: MTT cell viability assay, H-460; assay type: cell-based, human; details: 20 μM, MTT 48 hrs, FIG. 1
Experimental: as §1, §2, §3

MCF7 = assay: MTT cell viability assay, MCF7; assay type: cell-based, human; details: 20 μM, MTT 48 hrs, FIG. 1
Experimental: as §1, §2, §3

[2] = system: resting human peripheral lymphocytes (hPBLs); assay: Cell viability of resting hPBLs; assay type: cell-based; details: FIG. 16
Experimental: as §1, §2, §3

[3] = system: SEMK2 human leukemia xenograft; assay: SEMK2 human leukemia xenograft model; assay type: in vivo, NOD-SCID mice; details: daily tail vein injection, 3, 10 or 30 mg/Kg/day
Experimental: To determine the anti-oncogenic activity of peptidomimetic macrocycles of the invention in vivo, the compounds are, for example, given alone (IP, IV, SC, PO, by inhalation or nasal routes) or in combination with sub-optimal doses of relevant chemotherapy (e.g., cyclophosphamide, doxorubicin, etoposide). In one example, 5×10^6 SEMK2 cells (established from the bone marrow of a patient with acute lymphoblastic leukemia) that stably express luciferase are injected by tail vein in NOD-SCID, SCID-beige or NOD.IL2rg KO mice 3 hrs after they have been subjected to total body irradiation. Non-radiated mice may also be used for these studies. If left untreated, this form of leukemia is fatal in 3 weeks in this model. The leukemia is readily monitored, for example, by injecting the mice with D-luciferin (60 mg/kg) and imaging the anesthetized animals (e.g., Xenogen In Vivo Imaging System, Caliper Life Sciences, Hopkinton, Mass.). Total body bioluminescence is quantified by integration of photonic flux (photons/sec) by Living Image Software (Caliper Life Sciences, Hopkinton, Mass.). […] Optionally, the mice are imaged throughout the experiment every other day and survival monitored daily for the duration of the experiment. […]

Bcl-xL = Bcl-xL (Homo sapiens, UniProt Q07817); assay: Kd, μM | Bcl-xL
Bcl-xL, sequence (Q07817 whole entry, looked up): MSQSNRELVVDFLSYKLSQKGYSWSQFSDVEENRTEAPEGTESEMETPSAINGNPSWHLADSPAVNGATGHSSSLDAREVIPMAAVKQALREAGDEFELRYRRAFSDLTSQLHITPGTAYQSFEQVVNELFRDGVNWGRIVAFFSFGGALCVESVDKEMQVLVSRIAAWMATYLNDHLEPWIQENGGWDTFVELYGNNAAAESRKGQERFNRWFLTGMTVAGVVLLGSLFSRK
From the text: (§4) Table printed on a drawing sheet, Figure 27
Head of the field: Kd, μM | Bcl-xL
Where the first naming reader finds the target: head: Kd, μM | Bcl-xL

Mcl-1 = assay: Kd, μM | Mcl-1
From the text: as §4
Head of the field: Kd, μM | Mcl-1
First copying reader's note: The last row (ABT-737) is a small-molecule comparator; the three plots above the table are not copied.
Where the first naming reader finds the target: head: Kd, μM | Mcl-1

SMILES: CCCC[C@H](NC(=O)C1(C)CCCC=CCCCC(C)(NC(=O)[C@H](C)NC(=O)[C@H](CC(C)C)NC(=O)[C@H](Cc2c[nH]cn2)NC(=O)[C@H](CCCNC(=N)N)NC(=O)[C@H](C)NC(=O)[C@@H](NC(=O)[C@H](CC(N)=O)NC(=O)[C@H](CCCNC(=N)N)NC(=O)[C@@H](NC(=O)[C@@H](NC(=O)[C@H](CC(=O)O)NC(C)=O)[C@@H](C)CC)[C@@H](C)CC)[C@@H](C)CC)C(=O)N[C@@H](C(C)C)C(=O)NCC(=O)N[C@@H](CC(=O)O)C(=O)N1)C(=O)N[C@@H](CC(=O)O)C(=O)N[C@@H](CCCNC(=N)N)C(=O)N[C@@H](CO)C(=O)N[C@H](C(N)=O)[C@@H](C)CC (stereo partly shown) [SP-1] (Ac-DIIRNIARHLA[ξαMeNle(6-ylidene)]VGD[ξαMeNle(6-ylidene)][Nle]DRSI-NH2; staple 12-16)
- sensitivity of all leukemia/lymphoma lines tested [1]: sensitive
- apoptosis of NCI-H220 (SCLC) (NCI-H220): induced apoptosis
- apoptosis of NCI-H146 (SCLC) (NCI-H146): induced apoptosis
- sensitivity of A-549 (NSCLC) (A-549): resistant
- sensitivity of H-460 (NSCLC) (H-460): resistant
- sensitivity of MCF7 (breast cancer) (MCF7): resistant
- programmed cell death of resting hPBLs [2]: does not induce programmed cell death
- tumor burden / tumor progression (total body bioluminescence) [3]: decreases tumor burden
- Kd (Bcl-xL): < 0.1 µM
- Kd (Mcl-1): < 0.1 µM
